Reference: patent publication US20250100972A1, “COMPOUND, RUBBER BLEND CONTAINING THE COMPOUND, VEHICLE TIRE COMPRISING THE RUBBER BLEND IN AT LEAST ONE COMPONENT, PROCESS FOR PRODUCING THE COMPOUND, AND USE OF THE COMPOUND AS AN AGEING PROTECTANT AND/OR ANTIOZONANT AND/OR DYE” (Continental Reifen Deutschland GmbH, priority 2021, published 2025)

How the values were obtained:
[1] = Measurement of oxidation induction time (OIT) by DSC; type: physicochemical; conditions: with liquid polyisoprene LIR-50, isothermal 180° C., switch from N2 to O2 atmosphere 50 mL/min, DSC peak; measuring accuracy ± 10 min
Procedure: The compound of formula II) was investigated under laboratory conditions for its potential protective effect as an aging stabilizer by measurement of the oxidation induction time.
To this end the compounds of formula II) and 6-PPD in each case together with a polymer (liquid synthetic polyisoprene (IR), LIR-50, Kuraray, weight average molecular weight distribution Mw=54 000 g/mol, glass transition temperature Tg=−63° C.) were heated at constant temperature (180° C.) until onset of oxidation (start temperature 35° C., heating to 170° C. at a heating rate of 20 K/min (kelvin per minute), heating to 180° C. at a heating rate of 1 K/min; purge gas: nitrogen (N2), volume flow 50 mL/min).
The specimen was isothermally maintained at 180° C. under an N2 atmosphere and the atmosphere was then switched to an O2 atmosphere (volume flow 50 mL/min).
Oxidation was determined via a peak using DSC (differential scanning calorimetry).
The time in minutes to oxidation was measured.

[2] = basic structure compared with aniline; cited from earlier work

## CC(C)CC(C)Nc1ccc(Nc2ccccc2)cc1 (stereo not drawn) [6-PPD, N-(1,3-dimethylbutyl)-N′-phenyl-p-phenylenediamine]
[1]
  Time to oxidation (oxidation induction time): 116 ± 10 min

## CC(C)CC(C)Nc1ccc2[nH]c3ccccc3c(=O)c2c1 (stereo not drawn) [Compound of formula II), 2-(1,3-dimethylbutylamino)-acridine-9(10H)-one]
[1]
  Time to oxidation (oxidation induction time): 259 ± 10 min

## acridinone
[2]
  Genotoxicity / mutagenicity according to safety data sheet: neither genotoxic nor mutagenic
